Reference: patent US11193110B2, “Methods to generate gastrointestinal epithelial tissue constructs” (The University of North Carolina at Chapel Hill, priority 2015, dated 2021)
“Also recorded” adds a separate entry of the source.

What was measured:
[1] = test system: primary intestinal epithelial cells; test: screen of dietary compounds and natural products on primary intestinal epithelial cells on collagen hydrogel (Hoechst 33342, EDU, alkaline phosphatase, Muc2); assay type: cell-based; details: 48 h incubation at Table 1 concentration; for growth suppression: both number of nuclei and S-phase cells significantly lower than control: p<0.01 versus control cells in ENR-W; for S-phase or proliferating cells (EDU) / number of nuclei / cell number (Hoechst 33342): relative to control cells cultured in ENR-W; for enterocyte phenotype (alkaline phosphatase expression): p=0.01 (#42), p=0.02 (#31), p=0.002 (#51)
Source text: FIG. 11. The impact of dietary compounds and natural products on primary colonic epithelium. The percentage of the collagen Daiszein (aglycone of daidzen) surface area occupied by cells (Hoechst 33342-positive) and the normalized EDU (A), alkaline phosphatase and mucin2-positive areas (B) were plotted against the compound number. The EDU, alkaline phosphatase and Muc2 areas were normalized to the total cell area. Alphabetic headings refer to categories described in Table 1.
Strategies to screen the vast number of dietary and metabolite compounds for their impact on proliferation, differentiation and other cell behaviors in the intestine have become increasingly important. However, major challenges exist due to a lack of technologies capable of faithfully duplicating the actions of these compounds on normal, healthy colonic cells. […] These attributes are central to intestinal barrier function and repair in the face of repeated chemical, physical, immune and infectious insults. Additionally controlled proliferation and terminal differentiation are key to avoiding an oncogenic state. Metabolites or natural products minimizing intestinal-cell proliferation without cell death, enhancing cell proliferation, or directing cells into the differentiated lineages are of profound interest for health maintenance and as therapeutics. The compounds represented a range of chemical classes with diverse or unknown impact on primary intestinal cells including fatty acids, bile acids, flavenoids, phytoestrogens, phenols, terpenoids, nitrates, and others. 75,000 cells were cultured on the collagen hydrogel with ENR-W (but with 10 ng/mL Wnt-3A) for 24 h to enable cells to attach to the surface, followed by incubation with the dietary/natural compounds for 48 h. The cells were then analyzed sequentially for four attributes: nuclei (Hoechst 33342), S-phase or proliferating cells (EDU), enterocyte phenotype (high alkaline phosphatase), and goblet cell marker (Muc2) (FIGS. 11A-B). […] In particular, glucosinolates (#68, #69, #70), responsible for the bitterness of cabbage and brussel sprouts, are toxic when consumed at high concentrations and this may in part be due to their direct effects on intestinal cells. […] These included the most of the phenols assayed such as gallic acid (#28), ellagic acid (#29), and punicalagin (#31) but also compounds such as valproate (#6) and […]-carotene (#58) all of which are recognized in the literature as inducing cell differentiation. […] Molecules promoting enterocyte formation may exert some of their beneficial effects by enhancing intestinal barrier and/or absorptive function and thus may be worthy of additional investigation. […] Matairesinol increases COX-2-derived prostaglandin E2 in Caco-2 cells and prostaglandin E2 has been characterized as inducing Goblet cell formation in the colon to increase mucous secretion. Screening primary colon epithelium directly links the matairesinol to increased mucous production and this may be through a prostaglandin E pathway.

Caco-2 cells = details: cited from earlier work
CYP1A1 = test: ethoxyresorufin O-deethylase (EROD) assay of CYP1A1 induction in the 2D colonic epithelial monolayer; assay type: cell-based, mouse; details: 0.1 μM TCDD
Protocol: FIG. 7. […] Top panel, day 0. Bottom panel, day 5. White dotted line indicates the perimeter of the insert. (B) SEM images of 2D monolayer. […] (C) Basal EROD activity and inducibility in 2D monolayer cells. 2D monolayer was cultured under ENR-WB for 5 days. […] CYP1A1 enzyme activity was determined using the ethoxyresorufin O-deethylase (EROD) assay, n=3.
Intestine is a vital organ that has many important functions (such as absorption, secretion, etc.). One function is metabolism through cytochrome P450 (CYP) enzyme activity that provides the principal, initial source of biotransformation/detoxification of ingested xenobiotics (Kaminsky, L. S. et al., Critical Reviews in Toxicology 21, 407-422 (1992)). Among the CYPs, CYP1A1 plays a physiological role in the degradation of estradiol into 2-OH-estradiol (Paine, M. F. et al., Drug Metabolism and Disposition 27, 360-364 (1999)). In vivo, CYP1A1 in rat intestines can be induced by feeding the rats with polycyclic aromatic hydrocarbons (PAHs) (Martignoni, M. et al., Chemico-Biological Interactions 151, 1-11 (2004)). […] The CYP1A1 enzyme activity was determined using an ethoxyresorufin O-deethylase (EROD) assay (Jones, S. P. et al., Ecotoxicology 23, 802-808 (2014)).

Compound | S-phase or proliferating cells (EDU) [1] | number of nuclei / cell number (Hoechst 33342) [1] | also measured
O=S(=O)(O)ON=C(CCc1ccccc1)S[C@@H]1O[C@H](CO)[C@@H](O)[C@H](O)[C@H]1O [#69, Gluconasturtiin] |  |  | growth suppression: both number of nuclei and S-phase cells significantly lower than control [1]: growth suppressive
S=C=NCc1ccccc1 [#68, Glucotropaeolin isothiocyanate] |  |  | growth suppression: both number of nuclei and S-phase cells significantly lower than control [1]: growth suppressive
O=c1oc2c(O)c(O)cc3c(=O)oc4c(O)c(O)cc1c4c23 [#29, Ellagic Acid] | suppressed proliferation | did not greatly diminish cell number | 
C/C(=C\CO)CCC[C@H](C)CCC[C@H](C)CCCC(C)C [#51, Phytol] |  | without cell number reduction | enterocyte phenotype (alkaline phosphatase expression) ([1]; relative to control): directed cells towards the enterocyte lineage
CC1=C(/C=C/C(C)=C/C=C/C(C)=C/C=C/C=C(C)/C=C/C=C(C)/C=C/C2=C(C)CCCC2(C)C)C(C)(C)CCC1 [#58, β-carotene] | suppressed proliferation | did not greatly diminish cell number | 
CN[C@@H]1C[C@H]2O[C@@](C)([C@@H]1OC)n1c3ccccc3c3c4c(c5c6ccccc6n2c5c31)C(=O)NC4 [#32, Aglycones (Staurosporine), reference compound] | decreased | significantly increased | 
O=C1O[C@H]2[C@@H]3OC(=O)c4cc(O)c(O)c(O)c4-c4c(O)c(O)c5oc(=O)c6c(c(O)c(O)c7oc(=O)c4c5c76)-c4c(cc(O)c(O)c4O)C(=O)OC[C@H]3OC(O)[C@@H]2OC(=O)c2cc(O)c(O)c(O)c2-c2c1cc(O)c(O)c2O (mixture of isomers) [#31, Punicalagin] | suppressed proliferation | did not greatly diminish cell number; also recorded: without cell number reduction | enterocyte phenotype (alkaline phosphatase expression) ([1]; relative to control): directed cells towards the enterocyte lineage
COc1cc(-c2oc3cc(O)cc(O)c3c(=O)c2O)ccc1O [#21, Isorhamnetin] | increased cell numbers in S-phase |  | 
C[S+]([O-])CCCC/C(=N\OS(=O)(=O)O)S[C@@H]1O[C@H](CO)[C@@H](O)[C@H](O)[C@H]1O (some centres unmarked) [#70, Glucoraphanin] |  |  | growth suppression: both number of nuclei and S-phase cells significantly lower than control [1]: growth suppressive
COc1cc(C[C@H]2COC(=O)[C@@H]2Cc2ccc(O)c(OC)c2)ccc1O [#77, Matairesinol] |  |  | goblet cell marker Muc2 or mucin expression ([1]; relative to control, p<0.01): significantly increased; COX-2-derived prostaglandin E2 (Caco-2 cells): increases
Clc1cc2c(cc1Cl)Oc1cc(Cl)c(Cl)cc1O2 [TCDD, 2,3,7,8-tetrachlorodibenzo-p-dioxin] |  |  | CYP1A1 activity increased compared with the cells treated with toluene vehicle (CYP1A1; 2D monolayer cultured under ENR-WB 5 days, treated 20 hours, EROD assay): 40 fold; CYP1A1 enzyme activity induction by PAHs (CYP1A1; 2D monolayer treated 20 hours, 10 μM βNF, 1 μM BaP, toluene vehicle): effectively demonstrated
O=C(O)c1cc(O)c(O)c(O)c1 [#28, Gallic Acid] | suppressed proliferation | did not greatly diminish cell number | 
CC12CCC(CC1)C(C)(C)O2 [#42, Eucalyptol] | minimized cell proliferation |  | enterocyte phenotype (alkaline phosphatase expression) ([1]; relative to control): increasing alkaline phosphatase expression
